We go through one compound from ChEMBL document CHEMBL5055679, “Discovery of a Novel Androgen Receptor Antagonist Manifesting Evidence to Disrupt the Dimerization of the Ligand-Binding Domain via Attenuating the Hydrogen-Bonding Network Between the Two Monomers” (J Med Chem, 2021).

One assay deals with A549. As to the kind of experiment: Cytotoxicity against human A549 cells assessed as reduction in cell viability at 50 uM incubated for 72 hrs by MTT assay. Format: functional, cell-based. For orientation: Formazan colour is commonly taken as a measure of viable cells.
A further assay relates to MCF7. The assay is described as follows: Cytotoxicity against human MCF7 cells assessed as reduction in cell viability at low concentration incubated for 72 hrs by MTT assay. Format: functional, cell-based.
A further assay deals with LNCaP. As to the kind of experiment: Inhibition of colony formation in human LANCaP cells after 2 weeks by crystal violet staining based assay. Type of assay: functional, cell-based. Particulars: dose 2-20 µM.
Assay [1] concerns the target T1, Androgen receptor (Homo sapiens) (UniProt P10275).
T1 sequence (whole entry): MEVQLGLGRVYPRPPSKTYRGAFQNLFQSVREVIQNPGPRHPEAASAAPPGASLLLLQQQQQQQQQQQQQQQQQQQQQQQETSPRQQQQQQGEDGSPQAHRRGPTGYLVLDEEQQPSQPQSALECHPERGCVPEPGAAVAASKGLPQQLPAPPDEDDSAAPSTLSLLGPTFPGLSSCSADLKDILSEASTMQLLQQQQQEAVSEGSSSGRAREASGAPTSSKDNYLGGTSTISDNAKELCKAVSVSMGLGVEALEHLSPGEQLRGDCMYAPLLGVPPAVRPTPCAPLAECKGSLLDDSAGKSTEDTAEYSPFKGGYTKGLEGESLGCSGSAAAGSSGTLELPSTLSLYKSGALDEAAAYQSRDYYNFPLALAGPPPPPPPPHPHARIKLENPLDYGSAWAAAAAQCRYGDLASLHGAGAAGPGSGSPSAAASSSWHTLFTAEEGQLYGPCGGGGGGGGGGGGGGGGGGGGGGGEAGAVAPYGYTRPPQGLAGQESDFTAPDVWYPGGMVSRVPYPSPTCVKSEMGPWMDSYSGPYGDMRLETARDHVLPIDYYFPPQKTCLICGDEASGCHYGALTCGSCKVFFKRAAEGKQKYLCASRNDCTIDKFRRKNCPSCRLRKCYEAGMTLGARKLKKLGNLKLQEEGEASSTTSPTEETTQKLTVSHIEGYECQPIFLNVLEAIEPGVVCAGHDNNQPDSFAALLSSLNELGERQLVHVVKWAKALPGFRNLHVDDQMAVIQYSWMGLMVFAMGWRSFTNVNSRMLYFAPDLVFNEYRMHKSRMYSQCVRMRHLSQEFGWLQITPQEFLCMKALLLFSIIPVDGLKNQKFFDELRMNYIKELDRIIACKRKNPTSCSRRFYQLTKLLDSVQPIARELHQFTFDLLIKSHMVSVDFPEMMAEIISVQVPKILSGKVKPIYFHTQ
The assay is described as follows: Antagonist activity at androgen receptor in human LNCaP cells assessed as reduction in DHT-induced AR protein expression at 0.1 to 10 uM after 48 hrs by Western blot analysis. As to conditions: dose 0.1-10 µM. Type of assay: cell-based. Background: In western blotting, separated proteins are transferred to a membrane and probed.

For assay [2], the target named is T2, Progesterone receptor (Homo sapiens) (UniProt P06401).
T2 sequence (whole entry): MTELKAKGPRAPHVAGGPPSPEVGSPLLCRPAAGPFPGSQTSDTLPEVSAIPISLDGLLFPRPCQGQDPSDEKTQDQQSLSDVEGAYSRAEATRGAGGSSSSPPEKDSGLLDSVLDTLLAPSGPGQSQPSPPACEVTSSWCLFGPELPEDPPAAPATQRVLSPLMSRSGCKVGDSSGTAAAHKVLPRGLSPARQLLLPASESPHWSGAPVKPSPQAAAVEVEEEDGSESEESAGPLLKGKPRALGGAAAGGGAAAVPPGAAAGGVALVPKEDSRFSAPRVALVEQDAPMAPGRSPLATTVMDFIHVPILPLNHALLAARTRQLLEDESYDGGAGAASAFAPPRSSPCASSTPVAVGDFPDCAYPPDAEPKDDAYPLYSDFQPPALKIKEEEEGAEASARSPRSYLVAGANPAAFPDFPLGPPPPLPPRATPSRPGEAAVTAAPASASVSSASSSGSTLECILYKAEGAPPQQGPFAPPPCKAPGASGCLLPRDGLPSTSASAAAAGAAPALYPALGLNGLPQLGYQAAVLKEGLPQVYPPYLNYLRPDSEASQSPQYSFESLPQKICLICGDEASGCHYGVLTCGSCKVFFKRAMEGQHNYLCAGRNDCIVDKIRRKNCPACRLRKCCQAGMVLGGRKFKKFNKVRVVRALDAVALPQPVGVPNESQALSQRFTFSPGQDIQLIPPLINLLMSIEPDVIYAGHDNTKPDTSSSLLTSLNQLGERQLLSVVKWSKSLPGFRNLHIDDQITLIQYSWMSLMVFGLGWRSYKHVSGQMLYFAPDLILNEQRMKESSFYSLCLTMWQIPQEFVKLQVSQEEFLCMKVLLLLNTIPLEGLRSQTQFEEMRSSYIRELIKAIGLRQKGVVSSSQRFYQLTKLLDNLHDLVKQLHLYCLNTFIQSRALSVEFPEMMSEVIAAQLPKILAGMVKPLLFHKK
The assay is described as follows: Antagonist activity at progesterone receptor in human HEK293T cells assessed as reduction in […] luciferase activity by dual-Glo luciferase assay. Type of assay: cell-based.

Assay [3] concerns the target T1, Androgen receptor (Homo sapiens). The assay is described as follows: Antagonist activity at androgen receptor in human LNCaP cells assessed as inhibition of DHT-induced AR nuclear translocation at 10 uM after 12 hrs by immunofluorescence assay. Format: cell-based. As to conditions: filed as antagonist.

Activity calls are given as the source filed them. The rule behind the calls is not given here.

Turning to `O=c1cc(C(F)(F)F)c2ccc(OCc3ccc(Br)cc3)cc2o1`, the result (in the assay on A549; in assay [3]) was Active. Further, the result (with MCF7; in assay [1]; in assay [2]) was inactive. The inhibition result with LNCaP is “Dose-dependent effect”.
